Source: ChEMBL document CHEMBL3217405, “Methanocarba ring as a ribose modification in ligands of G protein-coupled purine and pyrimidine receptors: synthetic approaches” (Medchemcomm, 2013)

Experiments:
Adenosine receptor A3 [1] = molecular target: T1, Adenosine receptor A3 (Homo sapiens, UniProt P0DMS8); assay: Agonist activity at adenosine A3 receptor (unknown origin) assessed as stimulation of [35S]GTPgammaS binding; assay type: functional
T1 sequence (P0DMS8 whole entry): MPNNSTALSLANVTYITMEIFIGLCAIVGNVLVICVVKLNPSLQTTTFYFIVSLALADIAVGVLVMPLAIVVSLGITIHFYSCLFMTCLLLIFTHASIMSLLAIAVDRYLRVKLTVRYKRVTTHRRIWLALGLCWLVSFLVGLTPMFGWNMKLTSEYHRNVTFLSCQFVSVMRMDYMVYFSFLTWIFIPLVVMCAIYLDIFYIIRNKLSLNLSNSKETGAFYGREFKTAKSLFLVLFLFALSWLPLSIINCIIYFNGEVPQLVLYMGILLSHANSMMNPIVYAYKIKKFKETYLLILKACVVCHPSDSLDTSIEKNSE

[2] = molecular target: Adenosine receptors; A1 & A3 (Homo sapiens) (UniProt P30542+P0DMS8); assay: Selectivity ratio of adenosine A3 receptor (unknown origin) over adenosine A1 receptor (unknown origin)
Adenosine receptor A3 [3] = molecular target: T1, Adenosine receptor A3; assay: Binding affinity to adenosine A3 receptor (unknown origin)

Row | EC50 (Adenosine receptor A3 [1]) | Selectivity ratio [2] | SMILES | further results
1 | < 0.001 µM | – | OC[C@@]12C[C@@H]1[C@@H](n1cnc3c(NCc4cccc(I)c4)ncnc31)[C@H](O)[C@@H]2O | –
2 | – | 130 | CNC(=O)[C@@]12C[C@@H]1[C@@H](n1cnc3c(NC)nc(Cl)nc31)[C@H](O)[C@@H]2O | –
3 | – | – | O=P(O)(OC[C@@]12C[C@@H]1[C@@H](n1cnc3c(O)ncnc31)[C@H](O)[C@@H]2O)OP(=O)(O)OC[C@@]12C[C@@H]1[C@@H](n1cnc3c(O)ncnc31)[C@H](O)[C@@H]2O | Ki (Adenosine receptor A3 [3]): 22 µM
4 | – | 12 | CNc1ncnc2c1ncn2[C@H]1[C@H](O)[C@H](O)[C@]2(CO)C[C@H]12 | –
5 | – | 39 | CNc1nc(Cl)nc2c1ncn2[C@H]1[C@H](O)[C@H](O)[C@]2(CO)C[C@H]12 | –
6 | < 0.001 µM | – | OC[C@@]12C[C@@H]1[C@@H](n1cnc3c(NCc4cccc(I)c4)nc(Cl)nc31)[C@H](O)[C@@H]2O | –
